This is an account of results in patent US20260092071A1, “COMPOUNDS AND COMPOSITIONS AS SMARCA2/4 DEGRADERS AND USES THEREOF” (REGENTS OF THE UNIVERSITY OF MICHIGAN, priority 2022, published 2026).

One assay deals with SMARCA4 (Homo sapiens, UniProt P51532). Kind of assay: HiBiT assay for protein degradation, Hela SMARCA4-HiBiT cells (A series). Further details: fuse HiBiT to the carboxy terminus of SMARCA2 (Promega CS302365) or SMARCA4 (Promega CS3023225); host or cells: HeLa (CRISPR/Cas9 HiBiT knock-in). The note with it: for DC50: read-out: SMARC A4 Hela HiBit DC50. The class given is cell-based. The essentials: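 HeLa cells engineered by CRISPR/Cas9 to carry a HiBiT tag fused to the C-terminus of SMARCA4 (Promega CS3023225) were grown in DMEM supplemented with FBS and penicillin-streptomycin. After compound exposure, remaining SMARCA4 protein was quantified using the Nano-Glo® HiBiT Lytic Detection Assay (Promega N3050), and curves were fitted in GraphPad Prism.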
For orientation: HiBiT is a short tag that completes a luciferase, so light tracks the accessible tagged protein.

The target of a further assay is SMARCA2 (Homo sapiens, UniProt P51531). Kind of assay: HiBiT assay for protein degradation, Hela SMARCA2-HiBiT cells (A series). The class given is cell-based. Further details: Hela cells were genetically modified via CRISPR/Cas9 to fuse HiBiT to the carboxy terminus of SMARCA2; host or cells: HeLa (CRISPR/Cas9 HiBiT knock-in). An outline of the steps:
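HeLa cells engineered by CRISPR/Cas9 to carry a HiBiT tag fused to the C-terminus of SMARCA2 (Promega CS302365) were grown in DMEM supplemented with FBS and penicillin-streptomycin. After treatment, remaining SMARCA2 protein was quantified with the Nano-Glo® HiBiT Lytic Detection Assay (Promega N3050), and curves were fitted in GraphPad Prism.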

Where [1] appears, read: Hela SMARCA4-HiBiT cells, 24 hours treatment.
Where [2] appears, read: read-out: SMARC A2 Hela HiBit DC50.
Where [3] appears, read: Hela SMARCA4-HiBiT cells, 24 hours treatment, read-out: SMARC A4 Hela HiBit Dmax.
Where [4] appears, read: Hela SMARCA2-HiBiT cells, 24 hours treatment; read-out: SMARC A2 Hela HiBit DC50.
Setting [5] is: Hela SMARCA2-HiBiT cells, 24 hours treatment; read-out: SMARC A2 Hela HiBit Dmax (%).

Like-named read-outs stand apart in the source and are kept apart here.

SMARCA4, sequence (P51532 whole entry, the tested form may be a part): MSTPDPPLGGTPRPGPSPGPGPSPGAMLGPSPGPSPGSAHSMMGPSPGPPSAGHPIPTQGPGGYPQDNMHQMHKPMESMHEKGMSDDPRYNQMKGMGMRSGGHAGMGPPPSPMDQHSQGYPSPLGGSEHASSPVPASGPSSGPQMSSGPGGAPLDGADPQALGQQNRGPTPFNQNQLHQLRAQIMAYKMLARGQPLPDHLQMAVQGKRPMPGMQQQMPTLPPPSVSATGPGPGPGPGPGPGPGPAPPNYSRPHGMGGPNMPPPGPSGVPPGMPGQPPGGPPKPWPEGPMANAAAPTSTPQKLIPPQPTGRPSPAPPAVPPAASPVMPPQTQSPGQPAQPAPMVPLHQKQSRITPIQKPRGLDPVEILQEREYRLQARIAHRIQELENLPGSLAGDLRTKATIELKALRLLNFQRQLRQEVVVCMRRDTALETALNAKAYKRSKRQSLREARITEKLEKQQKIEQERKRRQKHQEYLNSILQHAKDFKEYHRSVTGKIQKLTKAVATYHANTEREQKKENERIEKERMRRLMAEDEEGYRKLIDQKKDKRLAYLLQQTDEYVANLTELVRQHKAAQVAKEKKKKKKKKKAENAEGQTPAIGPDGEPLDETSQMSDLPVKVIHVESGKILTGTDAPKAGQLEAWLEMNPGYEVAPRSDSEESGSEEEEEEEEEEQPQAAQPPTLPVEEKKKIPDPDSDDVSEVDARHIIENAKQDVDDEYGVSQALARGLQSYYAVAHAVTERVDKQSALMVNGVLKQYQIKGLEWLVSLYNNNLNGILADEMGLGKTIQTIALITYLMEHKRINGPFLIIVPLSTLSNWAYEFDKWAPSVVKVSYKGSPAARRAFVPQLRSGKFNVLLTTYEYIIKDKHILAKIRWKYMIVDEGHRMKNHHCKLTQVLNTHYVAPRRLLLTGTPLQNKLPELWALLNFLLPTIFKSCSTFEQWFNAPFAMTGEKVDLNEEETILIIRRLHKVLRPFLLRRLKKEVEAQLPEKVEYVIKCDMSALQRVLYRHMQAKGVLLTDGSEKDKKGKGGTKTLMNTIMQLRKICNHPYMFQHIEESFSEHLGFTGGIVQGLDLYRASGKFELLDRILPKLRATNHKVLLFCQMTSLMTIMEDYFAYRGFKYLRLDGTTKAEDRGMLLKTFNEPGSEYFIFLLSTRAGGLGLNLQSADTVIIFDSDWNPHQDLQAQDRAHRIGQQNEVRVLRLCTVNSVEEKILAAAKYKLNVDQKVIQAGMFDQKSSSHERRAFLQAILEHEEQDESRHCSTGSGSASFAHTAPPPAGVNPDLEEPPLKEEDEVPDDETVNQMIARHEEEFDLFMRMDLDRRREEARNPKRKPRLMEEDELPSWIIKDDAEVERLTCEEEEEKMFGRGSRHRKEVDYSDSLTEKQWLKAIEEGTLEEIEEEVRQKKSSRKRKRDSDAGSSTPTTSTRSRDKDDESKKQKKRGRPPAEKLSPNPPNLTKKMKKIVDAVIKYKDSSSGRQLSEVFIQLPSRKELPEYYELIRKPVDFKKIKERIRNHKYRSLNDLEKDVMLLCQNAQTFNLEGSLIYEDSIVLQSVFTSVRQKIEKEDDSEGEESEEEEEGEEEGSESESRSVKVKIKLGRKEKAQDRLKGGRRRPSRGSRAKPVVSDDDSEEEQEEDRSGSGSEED
SMARCA2, sequence (P51531 whole entry, the tested form may be a part): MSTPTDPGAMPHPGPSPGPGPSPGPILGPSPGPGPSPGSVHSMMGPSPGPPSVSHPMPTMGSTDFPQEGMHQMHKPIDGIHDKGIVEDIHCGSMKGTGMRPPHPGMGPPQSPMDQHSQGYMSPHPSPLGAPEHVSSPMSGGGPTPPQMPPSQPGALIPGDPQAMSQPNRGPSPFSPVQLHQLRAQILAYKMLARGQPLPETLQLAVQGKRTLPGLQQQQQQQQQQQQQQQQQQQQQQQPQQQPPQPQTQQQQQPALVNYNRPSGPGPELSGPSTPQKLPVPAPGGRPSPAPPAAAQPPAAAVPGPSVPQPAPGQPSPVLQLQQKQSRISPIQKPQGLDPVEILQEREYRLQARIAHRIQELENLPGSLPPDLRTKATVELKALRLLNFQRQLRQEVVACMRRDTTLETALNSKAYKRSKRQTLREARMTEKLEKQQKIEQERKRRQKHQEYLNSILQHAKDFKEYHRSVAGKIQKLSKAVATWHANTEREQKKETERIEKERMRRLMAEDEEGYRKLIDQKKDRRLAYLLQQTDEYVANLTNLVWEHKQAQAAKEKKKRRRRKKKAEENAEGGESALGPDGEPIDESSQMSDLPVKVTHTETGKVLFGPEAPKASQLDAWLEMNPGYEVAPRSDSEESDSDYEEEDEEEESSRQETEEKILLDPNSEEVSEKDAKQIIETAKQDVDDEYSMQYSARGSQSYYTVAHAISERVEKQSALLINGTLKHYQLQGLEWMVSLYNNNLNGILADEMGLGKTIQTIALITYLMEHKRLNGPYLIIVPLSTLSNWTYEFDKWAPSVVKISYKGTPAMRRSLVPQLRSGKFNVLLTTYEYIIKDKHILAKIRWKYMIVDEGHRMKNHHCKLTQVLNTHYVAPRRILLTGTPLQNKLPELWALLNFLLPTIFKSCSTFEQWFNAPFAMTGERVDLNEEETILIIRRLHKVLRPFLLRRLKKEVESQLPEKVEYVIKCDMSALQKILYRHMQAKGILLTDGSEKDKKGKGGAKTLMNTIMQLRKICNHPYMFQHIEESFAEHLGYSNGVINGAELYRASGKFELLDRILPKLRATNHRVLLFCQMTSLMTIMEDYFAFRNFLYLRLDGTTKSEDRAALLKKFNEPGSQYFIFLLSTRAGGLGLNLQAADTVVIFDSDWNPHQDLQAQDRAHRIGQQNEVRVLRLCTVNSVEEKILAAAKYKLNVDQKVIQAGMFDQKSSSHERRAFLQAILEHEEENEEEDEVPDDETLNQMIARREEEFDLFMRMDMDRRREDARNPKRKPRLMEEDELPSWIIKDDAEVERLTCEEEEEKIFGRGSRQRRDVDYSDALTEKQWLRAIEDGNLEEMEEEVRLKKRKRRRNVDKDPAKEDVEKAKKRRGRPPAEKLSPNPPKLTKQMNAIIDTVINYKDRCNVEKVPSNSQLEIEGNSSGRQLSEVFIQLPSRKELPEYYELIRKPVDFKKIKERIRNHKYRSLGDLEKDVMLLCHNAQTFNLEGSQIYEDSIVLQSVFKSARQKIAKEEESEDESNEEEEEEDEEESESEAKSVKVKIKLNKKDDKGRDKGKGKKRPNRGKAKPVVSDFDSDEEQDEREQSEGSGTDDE

As a reminder, the DC50 is the concentration at which degradation of the target reaches its halfway point. Turning to `Cc1ncsc1-c1ccc([C@H](CCCCCN2CCC(c3ccc4c(c3)C3(CCCCC3)c3nc(=O)c5c(Br)cccc5n3-4)CC2)NC(=O)[C@@H]2C[C@@H](O)CN2C(=O)[C@@H](NC(=O)C2(CN(C)C)CC2)C(C)(C)C)cc1` [Compound A18, (2S,4R)—N—((S)-6-(4-(4′-bromo-5′-oxo-5′H-spiro[cyclohexane-1,7′-indolo[1,2-a]quinazolin]-9′-yl)piperidin-1-yl)-1-(4-(4-methylthiazol-5-yl)phenyl)hexyl)-1-((S)-2-(1-((dimethylamino)methyl)cyclopropane-1-carboxamido)-3,3-dimethylbutanoyl)-4-hydroxypyrrolidine-2-carboxamide], the “SMARC A4 Hela HiBit Dmax(%)” value at SMARCA4 (setting [1]) is recorded as “B (B (70-90% degradation))”. For the same compound, the DC50 on SMARCA4 and at SMARCA2 (setting [2]) was less than 100 nM in each case. In addition, the “SMARC A2 Hela HiBit Dmax (%)” value at SMARCA2 (Hela SMARCA2-HiBiT cells, 24 hours treatment) is “B (B (70-90% degradation))”.
As usually defined, the Dmax is the greatest extent of degradation seen. For the compound `COCCOCCOC[C@H](NC(=O)[C@@H]1C[C@@H](O)CN1C(=O)[C@@H](n1cc([C@H]2CC[C@H](CN3CCC(c4ccc5c(c4)-n4c(nc(=O)c6c(Cl)cccc64)C54CCCCC4)CC3)CC2)nn1)C(C)(C)C)c1ccc(-c2scnc2C)cc1` [Compound A87, (2S,4R)-1-((S)-2-(4-((1r,4S)-4-((4-(4′-chloro-5′-oxo-5′H-spiro[cyclohexane-1,7′-indolo[1,2-a]quinazolin]-10′-yl)piperidin-1-yl)methyl)cyclohexyl)-1H-1,2,3-triazol-1-yl)-3,3-dimethylbutanoyl)-4-hydroxy-N-(®-2-(2-(2-methoxyethoxy)ethoxy)-1-(4-(4-methylthiazol-5-yl)phenyl)ethyl)pyrrolidine-2-carboxamide], the 50% degradation concentration (DC50) on SMARCA4 (setting [1]) was more than 1000 nM; on SMARCA2 (setting [4]) it was less than 10 nM. For the same compound, the greatest degradation seen (Dmax) was 50 to 69% at SMARCA4 (setting [3]) and more than 90% at SMARCA2 (setting [5]).
As to `Cc1ncsc1-c1ccc([C@H](C)NC(=O)[C@@H]2C[C@@H](O)CN2C(=O)[C@@H](NC(=O)CN2CCC(c3ccc4c(c3)-n3c(nc(=O)c5c(Br)cccc53)C43CCCCC3)CC2)C(C)(C)C)cc1` [Compound A40, (2S,4R)-1-((S)-2-(2-(4-(4′-bromo-5′-oxo-5′H-spiro[cyclohexane-1,7′-indolo[1,2-a]quinazolin]-10′-yl)piperidin-1-yl)acetamido)-3,3-dimethylbutanoyl)-4-hydroxy-N—((S)-1-(4-(4-methylthiazol-5-yl)phenyl)ethyl)pyrrolidine-2-carboxamide], the Dmax on SMARCA4 (HeLa, read-out: SMARC A4 Hela HiBit Dmax(%)) is more than 90%; at SMARCA2 (HeLa, read-out: SMARC A2 Hela HiBit Dmax (%)), more than 90%. Besides, the DC50 on SMARCA4 and at SMARCA2 (setting [2]) was less than 100 nM in each case.
Take `Cc1ncsc1-c1ccc([C@H](CN2CCOCC2)NC(=O)[C@@H]2C[C@@H](O)CN2C(=O)[C@H](C2CCCCC2)n2cc([C@H]3CC[C@H](CN4CCC(c5ccc6c(c5)-n5c(nc(=O)c7c(Cl)cccc75)C65CCCCC5)C4)CC3)nn2)cc1` (stereo partly drawn) [Compound A130, (2S,4R)-1-((2S)-2-(4-((1r,4S)-4-((3-(4′-chloro-5′-oxo-5′H-spiro[cyclohexane-1,7′-indolo[1,2-a]quinazolin]-10′-yl)pyrrolidin-1-yl)methyl)cyclohexyl)-1H-1,2,3-triazol-1-yl)-2-cyclohexylacetyl)-4-hydroxy-N—((R)-1-(4-(4-methylthiazol-5-yl)phenyl)-2-morpholinoethyl)pyrrolidine-2-carboxamide]: the figures for the DC50 on SMARCA4 (setting [1]) and at SMARCA2 (setting [4]) were more than 1000 nM and 10 to 100 nM, respectively. Also, the Dmax was less than 50% on SMARCA4 (setting [3]) and more than 90% on SMARCA2 (setting [5]).
Turning to `Cc1ncsc1-c1ccc([C@H](C)NC(=O)[C@@H]2C[C@@H](O)CN2C(=O)[C@@H](NC(=O)[C@H]2CC[C@H](CN3CCC(c4ccc5c(c4)-n4c(nc(=O)c6c(Cl)cccc64)C54CCCCC4)CC3)CC2)C(C)(C)C)cc1` [Compound A42, (2S,4R)-1-((S)-2-((1r,4S)-4-((4-(4′-chloro-5′-oxo-5′H-spiro[cyclohexane-1,7′-indolo[1,2-a]quinazolin]-10′-yl)piperidin-1-yl)methyl)cyclohexane-1-carboxamido)-3,3-dimethylbutanoyl)-4-hydroxy-N—((S)-1-(4-(4-methylthiazol-5-yl)phenyl)ethyl)pyrrolidine-2-carboxamide], the “SMARC A4 Hela HiBit DC50(nM)” value on SMARCA4 (setting [1]) is on record as “No Fit”. The Dmax on SMARCA2 (setting [5]) was 70 to 90%. Besides, on SMARCA2 (read-out: SMARC A2 Hela HiBit DC50; Hela SMARCA2-HiBiT cells, 24 hours treatment), the DC50 was less than 100 nM.
Take `Cc1ncsc1-c1ccc([C@H](CN2CCC(F)(F)CC2)NC(=O)[C@@H]2C[C@@H](O)CN2C(=O)[C@@H](n2cc([C@H]3CC[C@H](CN4CCC(c5ccc6c(c5)-n5c(nc(=O)c7c(Cl)cccc75)C6(C)C)CC4)CC3)nn2)C(C)(C)C)cc1` [Compound A94, (2S,4R)-1-((S)-2-(4-((1r,4S)-4-((4-(4-chloro-7,7-dimethyl-5-oxo-5,7-dihydroindolo[1,2-a]quinazolin-10-yl)piperidin-1-yl)methyl)cyclohexyl)-1H-1,2,3-triazol-1-yl)-3,3-dimethylbutanoyl)-N—((R)-2-(4,4-difluoropiperidin-1-yl)-1-(4-(4-methylthiazol-5-yl)phenyl)ethyl)-4-hydroxypyrrolidine-2-carboxamide]: the 50% degradation concentration (DC50) was more than 1000 nM at SMARCA4 (setting [1]) and less than 10 nM on SMARCA2 (setting [4]). Moreover, the Dmax at SMARCA4 (setting [3]) was less than 50%; on SMARCA2 (setting [5]), more than 90%.
With `Cc1ncsc1-c1ccc([C@H](CN2CCOCC2)NC(=O)[C@@H]2C[C@@H](O)CN2C(=O)[C@@H](n2cc([C@H]3CC[C@H](CN4CCC(c5ccc6c(c5)-n5c(nc(=O)c7c(Cl)cccc75)C6(C)C)CC4)CC3)nn2)C(C)(C)C)cc1` [Compound A90], the DC50 is more than 1000 nM at SMARCA4 (setting [1]) and less than 10 nM on SMARCA2 (setting [4]). Also, the Dmax at SMARCA4 (setting [3]) was less than 50%; on SMARCA2 (setting [5]), more than 90%.
With `Cc1ncsc1-c1ccc([C@H](CO)NC(=O)[C@@H]2C[C@@H](O)CN2C(=O)[C@H](C2CCCCC2)n2cc(-c3ccc(CN4CCC(c5ccc6c(c5)-n5c(nc(=O)c7c(Br)cccc75)C65CCCCC5)CC4)cc3)nn2)cc1` [Compound A129], the DC50 was more than 1000 nM on SMARCA4 (setting [1]) and 100 to 1000 nM at SMARCA2 (setting [4]). Also, the Dmax at SMARCA4 (setting [3]) was less than 50%; on SMARCA2 (setting [5]) it was 50 to 69%.
As to `CC(=O)N1CCC([C@@H](C(=O)N2C[C@H](O)C[C@H]2C(=O)N[C@@H](C)c2ccc(-c3scnc3C)cc2)n2cc([C@H]3CC[C@H](CN4CCC(c5ccc6c(c5)-n5c(nc(=O)c7c(Cl)cccc75)C65CCCCC5)CC4)CC3)nn2)CC1` [Compound A111, (2S,4R)-1-((S)-2-(1-acetylpiperidin-4-yl)-2-(4-((1r,4S)-4-((4-(4′-chloro-5′-oxo-5′H-spiro[cyclohexane-1,7′-indolo[1,2-a]quinazolin]-10′-yl)piperidin-1-yl)methyl)cyclohexyl)-1H-1,2,3-triazol-1-yl)acetyl)-4-hydroxy-N—((S)-1-(4-(4-methylthiazol-5-yl)phenyl)ethyl)pyrrolidine-2-carboxamide], the DC50 on SMARCA4 (setting [1]) is 10 to 100 nM; at SMARCA2 (setting [4]), less than 10 nM. Also, the Dmax on SMARCA4 (setting [3]) is 70 to 90%; on SMARCA2 (setting [5]), more than 90%.
Regarding `Cc1ncsc1-c1ccc([C@H](C)NC(=O)[C@@H]2C[C@@H](O)CN2C(=O)[C@@H](NC(=O)[C@H]2CC[C@H](CN3CCC(N4CCC(c5ccc6c(c5)C5(CCCCC5)c5nc(=O)c7c(Cl)cccc7n5-6)CC4)CC3)CC2)C(C)(C)C)cc1` [Compound A13, (2S,4R)-1-((S)-2-((1r,4S)-4-((4-(4′-chloro-5′-oxo-5′H-spiro[cyclohexane-1,7′-indolo[1,2-a]quinazolin]-9′-yl)-[1,4′-bipiperidin]-1′-yl)methyl)cyclohexane-1-carboxamido)-3,3-dimethylbutanoyl)-4-hydroxy-N—((S)-1-(4-(4-methylthiazol-5-yl)phenyl)ethyl)pyrrolidine-2-carboxamide], the “SMARC A4 Hela HiBit DC50(nM)” value at SMARCA4 (setting [1]) is listed as “No fit”. Moreover, the Dmax at SMARCA4 (Hela SMARCA4-HiBiT cells, 24 hours treatment, read-out: SMARC A4 Hela HiBit Dmax(%)) is less than 50%; at SMARCA2 (setting [5]), 70 to 90%. For the same compound, at SMARCA2 (setting [4]), the DC50 was less than 100 nM.
On to `Cc1ncsc1-c1ccc([C@H](CN2CCOCC2)NC(=O)[C@@H]2C[C@@H](O)CN2C(=O)[C@H](C(C)C)n2cc([C@H]3CC[C@H](CN4CCC(c5ccc6c(c5)-n5c(nc(=O)c7c(Cl)cccc75)C65CCCCC5)CC4)CC3)nn2)cc1` [Compound A103, (2S,4R)-1-((S)-2-(4-((1r,4S)-4-((4-(4′-chloro-5′-oxo-5′H-spiro[cyclohexane-1,7′-indolo[1,2-a]quinazolin]-10′-yl)piperidin-1-yl)methyl)cyclohexyl)-1H-1,2,3-triazol-1-yl)-3-methylbutanoyl)-4-hydroxy-N-((R)-1-(4-(4-methylthiazol-5-yl)phenyl)-2-morpholinoethyl)pyrrolidine-2-carboxamide], for which the 50% degradation concentration (DC50) at SMARCA4 (setting [1]) and on SMARCA2 (setting [4]) was less than 10 nM each time. The Dmax at SMARCA4 (setting [3]) was 50 to 69%; at SMARCA2 (setting [5]), more than 90%.
